Data reported in US12428415B2, “Matriptase 2 inhibitors and uses thereof” (Disc Medicine, Inc., priority 2018, dated 2025).

Target: T1, Human Recombinant Matriptase 2 (Homo sapiens, UniProt Q8IU80)
T1 construct: purchased Enzo Life Sciences (an in-house preparation was also used) ALX-201-752-1
T1 sequence (Q8IU80 1-811): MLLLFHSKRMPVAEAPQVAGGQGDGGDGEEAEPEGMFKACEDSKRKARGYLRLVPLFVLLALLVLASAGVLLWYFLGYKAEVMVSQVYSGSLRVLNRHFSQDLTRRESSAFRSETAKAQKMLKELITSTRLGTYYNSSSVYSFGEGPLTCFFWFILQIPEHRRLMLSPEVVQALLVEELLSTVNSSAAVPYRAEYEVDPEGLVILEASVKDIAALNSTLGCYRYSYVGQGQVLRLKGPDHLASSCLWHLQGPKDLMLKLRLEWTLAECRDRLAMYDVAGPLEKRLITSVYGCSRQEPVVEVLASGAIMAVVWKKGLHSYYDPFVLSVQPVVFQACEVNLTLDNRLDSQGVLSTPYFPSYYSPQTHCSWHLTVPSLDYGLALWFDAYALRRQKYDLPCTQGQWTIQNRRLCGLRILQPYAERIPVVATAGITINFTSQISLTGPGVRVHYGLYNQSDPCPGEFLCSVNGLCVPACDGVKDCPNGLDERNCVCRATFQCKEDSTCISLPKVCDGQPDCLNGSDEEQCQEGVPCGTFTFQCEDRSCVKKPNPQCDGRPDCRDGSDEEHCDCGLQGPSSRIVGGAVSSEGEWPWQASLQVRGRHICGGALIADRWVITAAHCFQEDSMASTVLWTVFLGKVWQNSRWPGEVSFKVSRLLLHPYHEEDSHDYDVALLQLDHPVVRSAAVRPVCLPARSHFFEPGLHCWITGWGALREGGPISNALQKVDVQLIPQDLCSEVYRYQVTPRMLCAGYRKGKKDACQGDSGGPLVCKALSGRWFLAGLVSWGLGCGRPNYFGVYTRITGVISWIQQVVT
Assay: Matriptase 2 fluorescence based inhibition assay, Method A (100 mM TRIS pH 9, 1 mg/mL BSA)
Assay type: biochemical
Conditions: 1 uM; Assay Used A; read-out: Mar-2 % inhibition at 1 uM
Protocol: Test compounds were evaluated for their potential to inhibit Human Recombinant Matriptase 2 (in-house and commercial protein from Enzo Life Sciences—cat log -ALX-201-752-1) using fluorescence based assay. The concentration of Recombinant Matriptase 2 and the substrate used in the assay was: 7 nM (commercial) and 15 nM (Inhouse Matriptase 2) and 100 μM (Boc-Gln-Ala-Arg-7-amido-4-methyl coumarin hydrobromide—Cat log: B4153-Sigma) respectively. The assay buffer used was 100 mM TRIS pH 9, 1 mg/mL BSA. The assay was performed using 384 well black flat bottom plate from grenier (Cat log: 781076) at 25° C. The enzyme and compound was preincubated for 30 mins, plate was read 60 mins after substrate addition at wavelength Ex: 360/Em: 480 nm. The final assay volume was 20 μl. Stock solution of compounds were initially prepared in DMSO and appropriate dilutions were made for screening and IC50 determination (final DMSO conc in the assay was 1%). All the measurements were carried out using the Spectramax M5, Molecular devices. The compounds were screened at 1 and 10 μM concentration and IC50 was determined for the interested compounds.
To determine IC50 values, dose response curves were generated by plotting percentage inhibition as a function of inhibitor concentration and the data was fitted to sigmoidal non-linear regression equation (variable slope) using Graph Pad prism software V7.

Structure (SMILES) | inhibition at 1 µM
N=C(N)c1ccc2cc(C(=O)Nc3ccc(N4CC[C@H](F)C4)cc3)n(Cc3ccc(C(N)=O)cc3)c2c1 [Compound I-105] | 25 to 50%
N=C(N)c1ccc2cc(C(=O)Nc3ccc(C(=O)N4CC[C@H](F)C4)cc3)n(Cc3ccc(C(N)=O)cc3)c2c1 [Compound I-106] | 0 to 25%
N=C(N)c1ccc2cc(C(=O)Nc3cc(F)cc(N4CCCC4)c3)n(Cc3ccc(C(N)=O)cc3)c2c1 [Compound I-108] | 0 to 25%
N=C(N)c1ccc2cc(C(=O)Nc3ccc(CN4CCCC4)cc3)n(Cc3ccc(C(N)=O)cc3)c2c1 [Compound I-114] | 25 to 50%
N=C(N)c1ccc2cc(C(=O)Nc3cc(F)ccc3F)n(Cc3ccc(C(N)=O)cc3)c2c1 [Compound I-115] | 0 to 25%
NC(=O)c1ccc(Cn2c(C(=O)Nc3cccc(N4CCCC4)c3)cc3ccc(C(N)=O)cc32)cc1 [Compound I-117, 1-(4-Carbamoylbenzyl)-N^2-(3-(pyrrolidin-1-yl)phenyl)-1H-indole-2,6-dicarboxamide] | 0 to 25%
CCOC(=O)NC(=N)c1ccc2cc(C(=O)Nc3ccc(N4CCCC4)cc3)n(Cc3ccc(C(N)=O)cc3)c2c1 [Compound I-119] | 0 to 25%
CCOC(=O)NC(=N)c1ccc2cc(C(=O)Nc3cccc(N4CCCC4)c3)n(Cc3ccc(C(N)=O)cc3)c2c1 [Compound I-120] | 0 to 25%
N=C(N)c1ccc2cc(C(=O)Nc3cccc(OCC4CC4)c3)n(Cc3ccc(C(N)=O)cc3)c2c1 [Compound I-121] | 0 to 25%
CO[C@H]1CCN(c2cccc(NC(=O)c3cc4ccc(C(=N)N)cc4n3Cc3ccc(C(N)=O)cc3)c2)C1 [Compound I-123] | 0 to 25%
CC(C)(O)[C@@H](NC(=O)c1cc2ccc(C(=N)N)cc2n1Cc1ccc(C(N)=O)cc1)c1ccccc1 [Compound I-125] | 25 to 50%
N=C(N)c1ccc2cc(C(=O)Nc3cccc(N4CC[C@H](O)C4)c3)n(Cc3ccc(C(N)=O)cc3)c2c1 [Compound I-128] | 0 to 25%
N=C(N)c1ccc2cc(C(=O)Nc3cccc(N4CCOCC4)c3)n(Cc3ccc(C(N)=O)cc3)c2c1 [Compound I-129] | 0 to 25%
N=C(N)c1ccc2cc(C(=O)Nc3cc(F)c(F)c(Br)c3)n(Cc3ccc(C(N)=O)cc3)c2c1 [Compound I-130] | 0 to 25%
N=C(N)c1ccc2cc(C(=O)Nc3cccc([N+](=O)[O-])c3)n(Cc3ccc(C(N)=O)cc3)c2c1 [Compound I-131] | 0 to 25%
N=C(N)c1ccc2cc(C(=O)Nc3cccc(-n4cccn4)c3)n(Cc3ccc(C(N)=O)cc3)c2c1 [Compound I-132] | 25 to 50%

Structure (SMILES) | inhibition at 1 µM
N=C(N)c1ccc2cc(C(=O)Nc3cccc(N4CCSCC4)c3)n(Cc3ccc(C(N)=O)cc3)c2c1 [Compound I-133] | 0 to 25%
N=C(N)c1ccc2cc(C(=O)Nc3cccc(-c4ccccn4)c3)n(Cc3ccc(C(N)=O)cc3)c2c1 [Compound I-134] | 0 to 25%
CN(C)CC(=O)O/N=C(\N)c1ccc2cc(C(=O)Nc3cccc(N4CCCC4)c3)n(Cc3ccc(C(N)=O)cc3)c2c1 [Compound I-135, 1-(4-Carbamoylbenzyl)-6-(N′-(2-(dimethylamino)acetoxy)carbamimidoyl)-N-(3-(pyrrolidin-1-yl)phenyl)-1H-indole-2-carboxamide] | 0 to 25%
NC(=O)c1ccc(Cn2c(C(=O)Nc3cccc(-c4ccccn4)c3)cc3ccc(C(N)=O)cc32)cc1 [Compound I-136, 1-(4-Carbamoylbenzyl)-N^2-(3-(pyridin-2-yl)phenyl)-1H-indole-2,6-dicarboxamide] | 0 to 25%
N=C(N)c1ccc2cc(C(=O)Nc3cccc(-c4ncc[nH]4)c3)n(Cc3ccc(C(N)=O)cc3)c2c1 [Compound I-137] | 25 to 50%
C=CCOc1cccc(NC(=O)c2cc3ccc(C(=N)N)cc3n2Cc2ccc(C(N)=O)cc2)c1 [Compound I-139] | 0 to 25%
N=C(N)c1ccc2cc(C(=O)Nc3cccc(N4CC[C@@H](F)C4)c3)n(Cc3ccc(C(N)=O)cc3)c2c1 [Compound I-140] | 0 to 25%
CC(C)OC(=O)NC(=N)c1ccc2cc(C(=O)Nc3cccc(N4CCCC4)c3)n(Cc3ccc(C(N)=O)cc3)c2c1 [Compound I-142] | 25 to 50%
N=C(N)c1ccc2cc(C(=O)Nc3cccc(-c4nccs4)c3)n(Cc3ccc(C(N)=O)cc3)c2c1 [Compound I-144] | 0 to 25%
N=C(N)c1ccc2cc(C(=O)Nc3ccc(Br)cc3F)n(Cc3ccc(C(N)=O)cc3)c2c1 [Compound I-145] | 0 to 25%
C#CCOc1cccc(NC(=O)c2cc3ccc(C(=N)N)cc3n2Cc2ccc(C(N)=O)cc2)c1 [Compound I-146] | 25 to 50%
N=C(NC(=O)Oc1ccccc1)c1ccc2cc(C(=O)Nc3cccc(N4CCCC4)c3)n(Cc3ccc(C(N)=O)cc3)c2c1 [Compound I-148] | 0 to 25%
N=C(N)c1ccc2cc(C(=O)Nc3cccc(-c4ccccc4)c3)n(Cc3ccc(C(N)=O)cc3)c2c1 [Compound I-151] | 0 to 25%
N=C(N)c1ccc2cc(C(=O)Nc3cc(N4CCCC4)ccc3F)n(Cc3ccc(C(N)=O)cc3)c2c1 [Compound I-152] | 0 to 25%
N=C(N)c1ccc2cc(C(=O)Nc3cccc(-n4ccccc4=O)c3)n(Cc3ccc(C(N)=O)cc3)c2c1 [Compound I-153] | 25 to 50%
N=C(N)c1ccc2cc(C(=O)Nc3cccc(-n4cccc4)c3)n(Cc3ccc(C(N)=O)cc3)c2c1 [Compound I-154] | 0 to 25%

Next, values leading:

inhibition at 1 µM | Structure (SMILES)
0 to 25% | C[C@H](NC(=O)c1cc2ccc(C(=N)N)cc2n1Cc1ccc(C(N)=O)cc1)c1ccc(Cl)c(Cl)c1 [Compound I-107]
0 to 25% | CC(C)(NC(=O)c1cc2ccc(C(=N)N)cc2n1Cc1ccc(C(N)=O)cc1)c1ccc(Cl)cc1 [Compound I-109]
0 to 25% | N=C(N)c1ccc2cc(C(=O)Nc3cccc(N4CCCCC4)c3)n(Cc3ccc(C(N)=O)cc3)c2c1 [Compound I-110]
0 to 25% | N=C(N)c1ccc2cc(C(=O)Nc3ccc(F)c(Br)c3)n(Cc3ccc(C(N)=O)cc3)c2c1 [Compound I-111]
25 to 50% | N=C(N)c1ccc2cc(C(=O)NCc3ccc(N4CCCC4)cc3)n(Cc3ccc(C(N)=O)cc3)c2c1 [Compound I-112]
0 to 25% | C[C@@H](NC(=O)c1cc2ccc(C(=N)N)cc2n1Cc1ccc(C(N)=O)cc1)c1ccc(F)c(Cl)c1 [Compound I-113]
0 to 25% | COC(=O)NC(=N)c1ccc2cc(C(=O)Nc3ccc(N4CCCC4)cc3)n(Cc3ccc(C(N)=O)cc3)c2c1 [Compound I-118, Methyl ((1-(4-carbamoylbenzyl)-2-((4-(pyrrolidin-1-yl)phenyl)carbamoyl)-1H-indol-6-yl)(imino)methyl)carbamate]
0 to 25% | N=C(N)c1ccc2cc(C(=O)Nc3cccc(N4CC[C@H](F)C4)c3)n(Cc3ccc(C(N)=O)cc3)c2c1 [Compound I-122]
0 to 25% | C[C@H]1CCCN1c1cccc(NC(=O)c2cc3ccc(C(=N)N)cc3n2Cc2ccc(C(N)=O)cc2)c1 [Compound I-124]
0 to 25% | N=C(N)c1ccc2cc(C(=O)Nc3cc(F)cc(Br)c3)n(Cc3ccc(C(N)=O)cc3)c2c1 [Compound I-126]
25 to 50% | N=C(N)c1ccc2cc(C(=O)Nc3ccc(N4CC[C@@H](F)C4)cc3)n(Cc3ccc(C(N)=O)cc3)c2c1 [Compound I-127]
0 to 25% | C#Cc1cccc(NC(=O)c2cc3ccc(C(=N)N)cc3n2Cc2ccc(C(N)=O)cc2)c1 [Compound I-138]
0 to 25% | N=C(NC(=O)OCc1ccccc1)c1ccc2cc(C(=O)Nc3cccc(N4CCCC4)c3)n(Cc3ccc(C(N)=O)cc3)c2c1 [Compound I-143]
0 to 25% | CC(C)COC(=O)NC(=N)c1ccc2cc(C(=O)Nc3cccc(N4CCCC4)c3)n(Cc3ccc(C(N)=O)cc3)c2c1 [Compound I-147]
0 to 25% | CS(=O)(=O)c1cccc(NC(=O)c2cc3ccc(C(=N)N)cc3n2Cc2ccc(C(N)=O)cc2)c1 [Compound I-150]
0 to 25% | N=C(N)c1ccc2cc(C(=O)Nc3ccc(F)c(N4CCCC4)c3)n(Cc3ccc(C(N)=O)cc3)c2c1 [Compound I-155]
